Legend:
CT26/luc cells = test: MTT cell viability assay; assay type: cell-based, mouse; conditions: 0-80 μM for 24, 48 and 72 hrs
Procedure: The details in preparing the materials and processing relative analyses will be illustrated as follows. First, CT-26 murine colon carcinoma cells (obtained from Taiwan Liposome Company, Taipei, Taiwan) were transfected with the luciferase gene (hereafter called “CT26/luc”). The CT26/luc tumor cells were cultured in RPMI 1640 medium (Invitrogen) supplemented with 10% fetal bovine serum (Hyclone), 100 units/ml of penicillin, and […] streptomycin (Gibco-BRL) at 37° C. in a 5% CO2 atmosphere.
Before starting the following investigation. The cell viability is analyzed. 3-(4,5-Dimethylthiazol-2-yl)-2,5-diphenyltetrazolium bromide (MTT, Sigma, USA) was dissolved in phosphate-buffered saline (145 mM NaCl, 1.4 mM KH2PO4, 4.3 mM Na2HPO4, and 2.7 mM KCl, pH 7.2). The CT26/luc cells were seeded in 96-well plates overnight, and then treated with various concentrations, such as 0, 5, 10, 20, 40, and 80 μM, of mirtazapine for 24, 48, and 72 hrs. And then, cell viability was determined with MTT assay. […] After 4 hours incubation at 37° C., 100 μl DMSO was added to dissolve the MTT formazan, and the absorbance was determined with an ELISA reader (Power Wave X340, Bio-Tek Instrument Inc., USA) using a wavelength of 570 nm for the excitation. […] The cell cycle analysis was assayed using a FACScan (BD Sciences) and analyzed by CellQuest software (BD Sciences).

IFN-γ = IFN-γ level in tumor by ELISA; assay type: in vivo, mouse; conditions: tumor lysate 6 weeks after tumor inoculation, 2 mg tumor protein
Procedure: And then, the level of IFN-γ in the tumor was determined using an ELISA kit (R&D Systems, Taiwan). Briefly, 6 weeks after tumor inoculation, the mice were sacrificed and the tumors were quickly removed and minced, then added with lysis buffer containing 1% protease inhibitor cocktail (T-PER tissue protein extraction reagent, Thermo Scientific, USA). After sonication, the cell mixture was centrifuged with 15000 rpm (Kubota centrifuge 1700, Japan) at 4° C. for 10 min The supernatant was collected for the protein quantification using bovine serum albumin as the standard. Two mg of the tumor proteins was used for the quantification of IFN-γ.

BALB/c mice [1] = test: Tail suspension test (immobility time); assay type: in vivo, mouse; conditions: continuous mirtazapine 10 mg/kg/d (drug and always); day 22 after tumor inoculation
Procedure: (§1) Second, all animal study protocols were approved by the Institutional Animal Care and Use Committee (IACAU) of National Yang Ming University. Mirtazapine (0.25 mg) was dissolved in 0.05 ml of 0.9% NaCl plus 0.5% absolute ethanol for each mouse (i.e. 10 mg/kg.) Male BALB/c mice (initial weights 25±2 g, and purchased from the National Laboratory Animal Center, Taipei, Taiwan) were housed in the cages, five mice per cage, under a 12:12 h reverse light/dark cycle with lights off at 6 pm Animals were handled and weighed daily for a week to reduce any non-specific stress responses. […] “Wild-type” means the mice are monitored without tumor inoculation and mirtazapine treatment, drug means the mice are monitored with continuous mirtazapine treatment but without tumor inoculation, never means the mice are monitored with tumor inoculation and daily 0.05 ml of 0.9% NaCl plus 0.5% absolute ethanol treatment but without mirtazapine treatment, always means the mice are monitored with mirtazapine treatment initiated 2 weeks before the tumor inoculation, and concurrent means the mice are monitored with tumor inoculation and mirtazapine treatment on the same day, and after means the mice are monitored with mirtazapine treatment initiated 2 weeks post the tumor inoculation. […]

BALB/c mice [2] = test: Spontaneous motor activity assay; assay type: in vivo, mouse; conditions: continuous mirtazapine 10 mg/kg/d (drug and always); day 22 after tumor inoculation
Procedure: as §1

TNF-α [3] = test: Serum TNF-α ELISA; assay type: in vivo, mouse; conditions: tumor-bearing mice with vs without mirtazapine; weekly up to 6 weeks post tumor inoculation
TNF-α [4] = test: TNF-α in tumor by ex vivo Western blotting; design: species or system mouse; conditions: Always, Concurrent and After; day 42 post tumor inoculation; decreased to % of Never
Procedure: As to the quantification of TNF-α, the whole blood withdrawn from the pouch of each mouse once a week for up to 6 weeks was centrifuged at 600×g for 20 min, and serum was collected. The serum TNF-α level was evaluated with an ELISA kit (eBioscience, USA). The level of TNF-α in the tumor of mice on day 42 post tumor inoculation was determined using ex vivo Western Blotting assay. Briefly, 6 weeks after tumor inoculation, the mice were sacrificed and the tumors were quickly removed and minced, then added with lysis buffer containing 1% protease inhibitor cocktail (T-PER tissue protein extraction reagent, Thermo Scientific, USA). Equal amounts of proteins (40 μg) were subjected to SDS-PAGE and transferred to PVDF membranes (Millipore, Bedford, Mass.). Non-specific binding was blocked by incubation with 5% non-fat milk. Membrane was incubated with antibodies against TNF-α (Abbiotec, USA) and β-actin (Millipore, USA) overnight at 4° C. The goat-anti rabbit IgG (Millipore) and goat-anti mouse IgG conjugated with horseradish peroxidase (Millipore) were used as the secondary antibodies. The band signal from the antigen-antibody binding was illustrated with enhanced chemoluminescence system (ECL, Millipore). Image J software (National Institutes of Health, USA) was used for the quantitative analysis.

Question: What does the source list for CN1CCN2c3ncccc3Cc3ccccc3C2C1 (centres unmarked) [mirtazapine]?
Answer: toxicity to CT26 colon cells (CT26/luc cells): nontoxic; IFN-γ in tumor (IFN-γ; group Always): 85.35 ± 4.5 pg/mL; IFN-γ in tumor (IFN-γ; group Concurrent): 39.42 ± 7.42 pg/mL; IFN-γ in tumor (IFN-γ; group after): 19.60 ± 1.13 pg/mL; immobility time (BALB/c mice [1]): significantly decreased; spontaneous motor activity (BALB/c mice [2]): no effect; serum TNF-α level (TNF-α [3]): no significant difference; TNF-α level in tumors relative to Never (TNF-α [4]): 40%

Reference: patent US20140271727A1, “METHOD OF USING AN ANTIDEPRESSANT FOR INCREASING IMMUNITY OF A SUBJECT AND TREATING CANCER” (NATIONAL YANG-MING UNIVERSITY, priority 2013, published 2014)
